Reference: patent US12324802B2, “Modulators of cystic fibrosis transmembrane conductance regulator” (Vertex Pharmaceuticals Incorporated, priority 2020, dated 2025)

Biological target: T1, CFTR (F508del/MF-HBE cells) (Homo sapiens, UniProt P13569, DEL508-508)
T1 construct: human bronchial epithelial (HBE) cells derived from CF subjects heterozygous for F508del and a minimal function CFTR mutation; endogenous in cells; host or cells: primary human bronchial epithelial cells from CF subjects (F508del/MF genotype)
Experiment: Ussing chamber assay of CFTR-mediated short-circuit currents (identification of potentiator compounds)
Assay type: cell-based
Conditions: CFTR-mediated ISC in F508del/MF-HBE cells; incubated 18-24 hours at 37° C. with 10 μM (14S)-8-[3-(2-{dispiro[2.0.2.1]heptan-7-yl}ethoxy)-1H-pyrazol-1-yl]-...-2,2,4-trione, 20% human serum
Procedure, shortened: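 F508del/minimal-function HBE cultures grown at air-liquid interface were incubated for 18–24 h at 37 °C with potentiator plus 10 μM corrector, in 20% human serum, and compounds stayed present during recording. Transepithelial ISC was recorded at 0 mV and 37 °C with 30 μM apical amiloride. CFTR current was taken as the peak response to 20 μM forskolin minus the steady state after a 20 μM inhibitor cocktail.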

T1 sequence (P13569 with tags, fused parts or gaps DEL508-508): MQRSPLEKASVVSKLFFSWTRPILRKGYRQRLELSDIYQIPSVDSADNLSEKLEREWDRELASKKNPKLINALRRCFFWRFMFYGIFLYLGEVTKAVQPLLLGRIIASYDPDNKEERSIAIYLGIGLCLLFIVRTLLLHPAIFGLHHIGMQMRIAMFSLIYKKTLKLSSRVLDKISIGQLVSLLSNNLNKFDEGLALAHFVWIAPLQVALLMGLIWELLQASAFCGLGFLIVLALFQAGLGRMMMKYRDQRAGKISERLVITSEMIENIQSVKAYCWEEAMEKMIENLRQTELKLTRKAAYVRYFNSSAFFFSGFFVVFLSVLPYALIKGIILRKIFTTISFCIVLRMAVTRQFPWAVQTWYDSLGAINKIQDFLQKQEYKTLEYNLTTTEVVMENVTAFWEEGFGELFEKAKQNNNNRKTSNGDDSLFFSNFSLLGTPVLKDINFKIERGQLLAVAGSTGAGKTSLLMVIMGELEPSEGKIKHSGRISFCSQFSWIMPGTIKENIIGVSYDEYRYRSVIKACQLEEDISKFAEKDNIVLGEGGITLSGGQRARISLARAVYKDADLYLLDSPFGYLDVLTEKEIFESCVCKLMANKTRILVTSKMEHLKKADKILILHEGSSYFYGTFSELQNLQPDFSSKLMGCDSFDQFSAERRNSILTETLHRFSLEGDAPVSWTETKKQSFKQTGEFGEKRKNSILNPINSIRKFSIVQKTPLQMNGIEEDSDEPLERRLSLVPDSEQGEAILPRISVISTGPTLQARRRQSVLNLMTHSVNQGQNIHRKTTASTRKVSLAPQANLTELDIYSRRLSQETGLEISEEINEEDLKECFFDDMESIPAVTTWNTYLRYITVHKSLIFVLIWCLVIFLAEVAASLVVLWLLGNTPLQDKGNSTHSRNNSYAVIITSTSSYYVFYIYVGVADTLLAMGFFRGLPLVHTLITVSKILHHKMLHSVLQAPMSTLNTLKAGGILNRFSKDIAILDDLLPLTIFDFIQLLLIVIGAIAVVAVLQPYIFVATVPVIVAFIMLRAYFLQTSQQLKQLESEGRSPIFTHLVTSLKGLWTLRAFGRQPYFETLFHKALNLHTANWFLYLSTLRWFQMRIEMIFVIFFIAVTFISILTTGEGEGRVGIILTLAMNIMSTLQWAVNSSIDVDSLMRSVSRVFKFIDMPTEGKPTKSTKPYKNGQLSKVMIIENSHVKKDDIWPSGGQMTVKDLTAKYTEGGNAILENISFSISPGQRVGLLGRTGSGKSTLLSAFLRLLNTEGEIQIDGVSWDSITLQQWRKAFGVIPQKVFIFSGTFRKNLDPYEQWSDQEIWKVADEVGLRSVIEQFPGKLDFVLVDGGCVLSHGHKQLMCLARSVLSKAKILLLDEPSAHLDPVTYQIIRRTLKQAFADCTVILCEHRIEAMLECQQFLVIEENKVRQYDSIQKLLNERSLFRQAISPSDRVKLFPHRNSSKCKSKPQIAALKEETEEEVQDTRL

Row | Compound | EC50
1 | CCOC(=O)C1CCCCCC(O)(C(F)(F)F)C2=NN=C(O2)c2nc(c(C(F)(F)F)cc2N)N1 (single isomer, unassigned) [Compound 94, ethyl 17-amino-6-hydroxy-6,15-bis(trifluoromethyl)-19-oxa-3,4,13,18-tetrazatricyclo[12.3.1.12,5]nonadeca-1(18),2,4,14,16-pentaene-12-carboxylate] | < 500 nM
2 | Nc1cc(C(F)(F)F)c2nc1-c1nnc(o1)C(O)(C(F)(F)F)CCCC(=O)N1CCN2CC1 (single isomer, unassigned) [Compound 37, 5-amino-11-hydroxy-3,11-bis(trifluoromethyl)-21-oxa-1,8,9,16,22-pentaazatetracyclo[14.2.2.12,6.17,10]docosa-2,4,6(22),7,9-pentaen-15-one] | < 500 nM
3 | Nc1cc(C(F)(F)F)c2nc1-c1nnc(o1)C(O)(C(F)(F)F)CCCCCC(c1ccccc1)N2 (single isomer, unassigned) [Compound 120, 17-amino-12-phenyl-6,15-bis(trifluoromethyl)-19-oxa-3,4,13,18-tetrazatricyclo[12.3.1.12,5]nonadeca-1(18),2,4,14,16-pentaen-6-ol] | < 500 nM
4 | CN1CCCCCCC(O)(c2ccccc2)C2=NN=C(O2)c2nc1c(C(F)(F)F)cc2N (single isomer, unassigned) [Compound 76, 17-amino-13-methyl-6-phenyl-15-(trifluoromethyl)-19-oxa-3,4,13,18-tetrazatricyclo[12.3.1.12,5]nonadeca-1(18),2,4,14,16-pentaen-6-ol] | < 500 nM
5 | Nc1cc(Cc2ccccc2)c2nc1-c1nnc(o1)C(O)(C(F)(F)F)CCCCC[C@@H]1CCCN21 (mixture of isomers) [Compound 137, (12R)-20-amino-18-benzyl-6-(trifluoromethyl)-22-oxa-3,4,16,21-tetraazatetracyclo[15.3.1.12,5.012,16]docosa-1(21),2,4,17,19-pentaen-6-ol] | < 500 nM
6 | CC1(C)COCCCC(O)(C(F)(F)F)C2=NN=C(O2)c2nc(c(C(F)(F)F)cc2N)N1 (single isomer, unassigned) [Compound 199, 17-amino-12,12-dimethyl-6,15-bis(trifluoromethyl)-10,19-dioxa-3,4,13,18-tetrazatricyclo[12.3.1.12,5]nonadeca-1(18),2,4,14,16-pentaen-6-ol] | < 500 nM
7 | COCCN1CCCCCCC(O)(C(F)(F)F)C2=NN=C(O2)c2nc1c(C(F)(F)F)cc2N (single isomer, unassigned) [Compound 34, 17-amino-13-(2-methoxyethyl)-6,15-bis(trifluoromethyl)-19-oxa-3,4,13,18-tetrazatricyclo[12.3.1.12,5]nonadeca-1(18),2,4,14,16-pentaen-6-ol] | < 500 nM
8 | NC(=O)c1cc(N)c2nc1N1CCC[C@H]1CCCCCC(O)(C(F)(F)F)C1=NN=C2O1 (mixture of isomers) [Compound 142, (12R)-20-amino-6-hydroxy-6-(trifluoromethyl)-22-oxa-3,4,16,21-tetraazatetracyclo[15.3.1.12,5.012,16]docosa-1(21),2,4,17,19-pentaene-18-carboxamide] | > 1000 nM
9 | Nc1cc(C(F)(F)F)c2nc1-c1nnc(o1)C(O)(C(F)(F)F)c1cccc(n1)CCC[C@@H]1CCCN21 (single isomer, unassigned) [Compound 83] | 500 to 1000 nM
10 | CC1(C)CC2CCCCCC(O)(C(F)(F)F)C3=NN=C(O3)c3nc(c(C(F)(F)F)cc3N)N2C1 (single isomer, unassigned) [Compound 29, 20-amino-14,14-dimethyl-6,18-bis(trifluoromethyl)-22-oxa-3,4,16,21-tetraazatetracyclo[15.3.1.12,5.012,16]docosa-1(21),2,4,17,19-pentaen-6-ol] | < 500 nM
11 | CC1(C)CCCCC(O)C(O)(C(F)(F)F)C2=NN=C(O2)c2nc(c(C(F)(F)F)cc2N)N1 (single isomer, unassigned) [Compound 194, 17-amino-12,12-dimethyl-6,15-bis(trifluoromethyl)-19-oxa-3,4,13,18-tetrazatricyclo[12.3.1.12,5]nonadeca-1(18),2,4,14,16-pentaene-6,7-diol] | < 500 nM
12 | CC1(C)CCCCC(O)(C(F)(F)F)C2=NN=C(O2)c2nc(c(C(F)(F)F)cc2N)NC1 (single isomer, unassigned) [Compound 171, 17-amino-11,11-dimethyl-6,15-bis(trifluoromethyl)-19-oxa-3,4,13,18-tetrazatricyclo[12.3.1.12,5]nonadeca-1(18),2,4,14,16-pentaen-6-ol] | < 500 nM
13 | Nc1cc(-c2cn[nH]c2)c2nc1-c1nnc(o1)C(O)(C(F)(F)F)CCCCC[C@@H]1CCCN21 (mixture of isomers) [Compound 128, (12R)-20-amino-18-(1H-pyrazol-4-yl)-6-(trifluoromethyl)-22-oxa-3,4,16,21-tetraazatetracyclo[15.3.1.12,5.012,16]docosa-1(21),2,4,17,19-pentaen-6-ol] | < 500 nM
14 | Nc1cc(C(F)(F)F)c2nc1-c1nnc(o1)[C@](O)(C(F)(F)F)CCCCC[C@@H]1CCCN21 [Compound 5, (6S,12R)-20-amino-6,18-bis(trifluoromethyl)-22-oxa-3,4,16,21-tetraazatetracyclo[15.3.1.12,5.012,16]docosa-1(21),2,4,17,19-pentaen-6-ol] | > 1000 nM
15 | CCNc1cc(C(F)(F)F)c2nc1-c1nnc(o1)[C@](O)(C(F)(F)F)CCCCC[C@@H]1CCCN21 [Compound 16, (6S,12R)-20-(ethylamino)-6,18-bis(trifluoromethyl)-22-oxa-3,4,16,21-tetraazatetracyclo[15.3.1.12,5.012,16]docosa-1(21),2,4,17,19-pentaen-6-ol] | > 1000 nM
16 | Nc1cc(C(F)(F)F)c2nc1-c1nnc(o1)[C@@](O)(C(F)(F)F)c1cc(ccc1F)CCC[C@@H]1CCCN21 [Compound 60, (6R,15R)-23-amino-8-fluoro-6,21-bis(trifluoromethyl)-26-oxa-3,4,19,24-tetraazapentacyclo[18.3.1.12,5.17,11.015,19]hexacosa-1(24),2,4,7(25),8,10,20,22-octaen-6-ol] | < 500 nM
17 | CNc1cc(C(F)(F)F)c2nc1-c1nnc(o1)[C@@](O)(C(F)(F)F)CCCCC[C@@H]1CCCN21 [Compound 13, (6R,12R)-20-(methylamino)-6,18-bis(trifluoromethyl)-22-oxa-3,4,16,21-tetraazatetracyclo[15.3.1.12,5.012,16]docosa-1(21),2,4,17,19-pentaen-6-ol] | < 500 nM
18 | N#Cc1cc(N)c2nc1N1CCC[C@H]1CCCCCC(O)(C(F)(F)F)C1=NN=C2O1 (single isomer, unassigned) [Compound 81] | > 1000 nM
19 | Nc1cc(C(F)(F)F)c2nc1-c1nnc(o1)C(O)(C(F)(F)F)c1cc(ccn1)CCC[C@@H]1CCCN21 (single isomer, unassigned) [Compound 84] | < 500 nM
20 | CNc1cc(C(F)(F)F)c2nc1-c1nnc(o1)[C@](O)(C(F)(F)F)CCCCC[C@@H]1CCCN21 [Compound 15, (6S,12R)-20-(methylamino)-6,18-bis(trifluoromethyl)-22-oxa-3,4,16,21-tetraazatetracyclo[15.3.1.12,5.012,16]docosa-1(21),2,4,17,19-pentaen-6-ol] | > 1000 nM
21 | Nc1cc(C(F)(F)F)c2nc1-c1nnc(o1)C(O)(C(F)(F)F)CCCCCC(CO)N2 (single isomer, unassigned) [Compound 105, 17-amino-12-(hydroxymethyl)-6,15-bis(trifluoromethyl)-19-oxa-3,4,13,18-tetrazatricyclo[12.3.1.12,5]nonadeca-1(18),2,4,14,16-pentaen-6-ol] | > 1000 nM
